In patent US20250032458A1, “TREATMENT OF CANCER WITH AN FGFR KINASE INHIBITOR” (Kinnate Biopharma Inc., priority 2021, published 2025):
Where two headings read alike, the source gives them in different places.

Legend:
RT-4 cells = experiment: Cell proliferation, 5-day CellTiter-Glo; format: cell-based; conditions: Homo sapiens, 120 h; RT-4, 5 days; read-out: 5-Day CTG EC50
[1] = Tolerability / body weight in RT-112 xenograft mice; format: in vivo; conditions: RT-112 model
Experimental: (§1) Three animals in the 15 mg/kg cohort lost >10% of their body weight during the course of treatment but recovered by end of study.

RT-112 cells = experiment: Cell proliferation, 5-day CellTiter-Glo; format: cell-based; conditions: Homo sapiens, 120 h; RT-112, 5 days; read-out: 5-Day CTG EC50
[2] = Tolerability / body weight in SNU-16 xenograft mice; format: in vivo; conditions: SNU-16 model, all tested doses and schedules; lack of significant body weight changes
Excerpt: […]. Treatment was initiated when tumor volumes were approximately 200-250 mm^3 (actual mean TV for all groups was 262 mm^3).

[3] = Exposure in mice bearing RT-112 xenografts; conditions: mouse, in vivo, PO QD 2-15 mg/kg, 24-hour period following the last dose
Experimental: as §1

LOK (AKA STK10) = LOK (AKA STK10) (Homo sapiens, UniProt O94804); experiment: Kinome selectivity screen by mobility shift assay (321 kinases); conditions: read-out: % Inhibition 1 μM
LOK (AKA STK10), sequence (O94804 whole entry): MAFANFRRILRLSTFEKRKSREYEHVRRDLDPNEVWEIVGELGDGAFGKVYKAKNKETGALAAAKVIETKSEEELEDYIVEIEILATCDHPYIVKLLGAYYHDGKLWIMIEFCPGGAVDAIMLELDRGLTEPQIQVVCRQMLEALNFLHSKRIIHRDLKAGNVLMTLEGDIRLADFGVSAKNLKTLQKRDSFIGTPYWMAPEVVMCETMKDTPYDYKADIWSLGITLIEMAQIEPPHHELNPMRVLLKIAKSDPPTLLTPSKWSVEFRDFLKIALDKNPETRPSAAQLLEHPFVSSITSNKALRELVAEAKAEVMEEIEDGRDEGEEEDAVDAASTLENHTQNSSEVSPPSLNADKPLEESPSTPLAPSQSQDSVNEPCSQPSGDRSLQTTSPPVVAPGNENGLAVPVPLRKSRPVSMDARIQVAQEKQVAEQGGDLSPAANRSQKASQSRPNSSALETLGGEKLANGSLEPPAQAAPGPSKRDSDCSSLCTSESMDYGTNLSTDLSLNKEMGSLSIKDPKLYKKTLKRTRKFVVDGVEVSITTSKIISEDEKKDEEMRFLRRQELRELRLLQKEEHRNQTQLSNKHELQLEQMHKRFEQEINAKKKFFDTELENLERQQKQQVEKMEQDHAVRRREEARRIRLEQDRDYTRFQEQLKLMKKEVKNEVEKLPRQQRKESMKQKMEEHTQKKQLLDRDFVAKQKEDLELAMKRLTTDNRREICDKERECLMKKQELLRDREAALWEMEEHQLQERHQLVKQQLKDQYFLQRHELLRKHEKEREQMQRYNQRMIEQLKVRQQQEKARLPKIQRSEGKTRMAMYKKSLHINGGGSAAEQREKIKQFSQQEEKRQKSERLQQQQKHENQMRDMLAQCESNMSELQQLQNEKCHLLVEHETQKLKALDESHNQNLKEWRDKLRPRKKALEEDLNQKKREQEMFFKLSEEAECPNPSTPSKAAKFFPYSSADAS

TNK1 = molecular target: T1, TNK1 (Homo sapiens, UniProt Q13470); experiment: as above; conditions: read-out: % Inhibition 1 μM
T1 sequence (Q13470 1-666): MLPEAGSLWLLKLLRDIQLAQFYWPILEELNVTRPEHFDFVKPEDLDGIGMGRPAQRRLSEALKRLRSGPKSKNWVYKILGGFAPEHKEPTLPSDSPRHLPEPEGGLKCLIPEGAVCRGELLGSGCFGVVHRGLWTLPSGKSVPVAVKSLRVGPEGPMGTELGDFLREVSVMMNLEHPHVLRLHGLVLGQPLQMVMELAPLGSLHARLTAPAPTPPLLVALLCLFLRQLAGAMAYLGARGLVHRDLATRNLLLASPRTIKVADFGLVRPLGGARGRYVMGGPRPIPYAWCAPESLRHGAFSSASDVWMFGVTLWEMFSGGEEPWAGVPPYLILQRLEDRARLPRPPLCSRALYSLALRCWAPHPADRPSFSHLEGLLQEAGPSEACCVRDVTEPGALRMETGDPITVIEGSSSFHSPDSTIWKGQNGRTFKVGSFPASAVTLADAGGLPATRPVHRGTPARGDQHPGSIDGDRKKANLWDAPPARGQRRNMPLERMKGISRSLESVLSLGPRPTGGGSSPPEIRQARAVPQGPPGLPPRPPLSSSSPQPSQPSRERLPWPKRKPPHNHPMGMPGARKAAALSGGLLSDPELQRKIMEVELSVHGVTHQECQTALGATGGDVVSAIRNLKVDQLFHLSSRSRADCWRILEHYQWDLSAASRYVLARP

SNU-16 cells = experiment: Cell proliferation, 5-day CellTiter-Glo; format: cell-based; conditions: Homo sapiens, 120 h; SNU-16, 5 days; read-out: 5-Day CTG EC50
[4] = system: human RT-112 urinary bladder transitional cell carcinoma xenograft (FGFR3-TACC3 fusion); conditions: for ΔT/ΔC / Final TV: 21 days; for Final TV: mean ± SEM
Excerpt: (§2) Groups and treatments were started when the mean tumor volume reached approximately 200-250 mm^3. Mice were assigned to respective groups based on their starting tumor volume and body weight such that the average values for both parameters were balanced for each treatment group.

[5] = system: human SNU-16 gastric cancer xenograft (FGFR2 gene amplification); conditions: for ΔT/ΔC / Final TV: 21 days; for Final TV: mean ± SEM
Excerpt: as §2

SW-780 cells = experiment: Cell proliferation, 5-day CellTiter-Glo; format: cell-based; conditions: Homo sapiens, SW780, 120 h; SW-780, 5 days; read-out: 5-Day CTG EC50
KATO-III cells = experiment: Cell proliferation, 5-day CellTiter-Glo; format: cell-based; conditions: Homo sapiens, 120 h, 5 days, read-out: 5-Day CTG EC50
[6] = system: endogenous FGFR in five human tumor cell lines; conditions: read-out: EC50 values, inhibition of endogenous FGFR
panel of 321 kinases = experiment: Kinome selectivity screen by mobility shift assay (whole panel); conditions: 1 μM
[7] = Exposure in mice bearing SNU-16 xenografts; conditions: mouse, in vivo, PO QD 2-15 mg/kg, 24-hour period following the last dose

C=CC(=O)N1C[C@@H](n2nc(C#Cc3c(F)cc4c(ncn4C4CC4)c3F)c(C(N)=O)c2NC)C[C@@H]1COC [Compound 1, 1-((3S,5R)-1-acryloyl-5-(methoxymethyl)pyrrolidin-3-yl)-3-((1-cyclopropyl-4,6-difluoro-1H-benzo[d]imidazol-5-yl)ethynyl)-5-(methylamino)-1H-pyrazole-4-carboxamide]
EC50 (RT-4 cells): 5.96 nM
average weight loss ([1]; 15 mg/kg QD): 5.4%
animals that lost >10% of their body weight during treatment (recovered by end of study) ([1]; 15 mg/kg cohort (9 animals)): Three
tolerability ([1]; all of the tested doses (2, 5, 15 mg/kg QD)): well tolerated
EC50 (RT-112 cells): 4.14 nM
tolerability [2]: well tolerated
AUC(0-t) [3]: 1320 to 9760 ng·h/mL
inhibition at 1 µM (LOK (AKA STK10)): 64.6%
inhibition at 1 µM (TNK1): 89.5%
EC50 (SNU-16 cells): 3.89 nM
ΔT/ΔC ([4]; RT-112, 2 mg/kg QD PO): 20%
Final TV ([4]; RT-112, 2 mg/kg QD PO): 446 ± 49 mm^3
animals exhibiting tumor regression ([4]; RT-112, 5 mg/kg QD): 4 of 9
ΔT/ΔC ([4]; RT-112, 5 mg/kg QD PO): 9%
Final TV ([4]; RT-112, 5 mg/kg QD PO): 343 ± 57 mm^3
animals exhibiting tumor regression ([4]; RT-112, 15 mg/kg QD): 4 of 9
ΔT/ΔC ([4]; RT-112, 15 mg/kg QD PO): 1%
Final TV ([4]; RT-112, 15 mg/kg QD PO): 274 ± 48 mm^3
ΔT/ΔC ([5]; SNU-16, 2 mg/kg QD PO): 31%
Final TV ([5]; SNU-16, 2 mg/kg QD PO): 497 ± 22 mm^3
ΔT/ΔC ([5]; SNU-16, 5 mg/kg QD PO): 19%
Final TV ([5]; SNU-16, 5 mg/kg QD PO): 410 ± 20 mm^3
ΔT/ΔC ([5]; SNU-16, 15 mg/kg QD PO): 7%
Final TV ([5]; SNU-16, 15 mg/kg QD PO): 313 ± 13 mm^3
animals with tumor regression ([5]; SNU-16, 15 mg/kg QD cohort): one
EC50 (SW-780 cells): 4.14 nM
EC50 (KATO-III cells): 5.19 nM
EC50 [6]: 1 to 6 nM
number of non-FGFR kinases with >40% inhibition (panel of 321 kinases): 2
AUC(0-t) [7]: 1090 to 9760 ng·h/mL
